Measurements reported in publication PMC5218480 (PLoS ONE, 2017).

Test system: MV-4-11 cells
Experiment: Gene expression microarray analysis (Affymetrix PrimeView) and GSEA
Format: cell-based, human
Design: RFU PODN (11730768_x_at) / Fold change /veh PODN (11730768_x_at) / RFU LINC00158 (11744669_a_at) / Fold change /veh LINC00158 (11744669_a_at) / RFU DUSP10 (11751237_a_at) / Fold change /veh DUSP10 (11751237_a_at) / RFU ID3 (11757404_x_at) / Fold change /veh ID3 (11757404_x_at) / RFU PLEKHG5 (11737974_s_at) / Fold change /veh PLEKHG5 (11737974_s_at) / RFU LRRC4B (11730491_at) / Fold change /veh LRRC4B (11730491_at) / RFU GIMAP4 (11747438_a_at) / Fold change /veh GIMAP4 (11747438_a_at) / RFU KRT8 (11758183_x_at) / Fold change /veh KRT8 (11758183_x_at) / RFU CNN1 (11734310_a_at) / Fold change /veh CNN1 (11734310_a_at) / RFU VPS37D (11726825_at) / Fold change /veh VPS37D (11726825_at) / RFU C10orf10 (11716522_x_at) / Fold change /veh C10orf10 (11716522_x_at) / RFU KIR2DL2 /// KIR2DL4 /// KIR2DL5A /// KIR2DL5B /// KIR2DS1 /// KIR2DS2 /// KIR2DS3 /// KIR2DS4 /// KIR3DL3 /// KIR3DL3 /// KIR3DS1 (11738374_at) / Fold change /veh KIR2DL2 /// KIR2DL4 /// KIR2DL5A /// KIR2DL5B /// KIR2DS1 /// KIR2DS2 /// KIR2DS3 /// KIR2DS4 /// KIR3DL3 /// KIR3DL3 /// KIR3DS1 (11738374_at) / RFU C1QL1 (11718748_at) / Fold change /veh C1QL1 (11718748_at) / RFU TMPRSS4 (11747572_a_at) / Fold change /veh TMPRSS4 (11747572_a_at) / RFU HAMP (11756126_x_at) / Fold change /veh HAMP (11756126_x_at) / RFU RNFT2 (11725882_a_at) / Fold change /veh RNFT2 (11725882_a_at) / RFU NR4A2 (11747474_a_at) / Fold change /veh NR4A2 (11747474_a_at) / RFU ABCC12 (11746883_a_at) / Fold change /veh ABCC12 (11746883_a_at) / RFU TMEM136 (11760407_x_at) / Fold change /veh TMEM136 (11760407_x_at) / RFU CLDN22 /// WWC2 (11732394_at) / Fold change /veh CLDN22 /// WWC2 (11732394_at) / RFU HLA-DPB1 (11760878_x_at) / Fold change /veh HLA-DPB1 (11760878_x_at) / RFU SPINT1 (11716480_a_at) / Fold change /veh SPINT1 (11716480_a_at) / RFU GAP43 (11754022_s_at) / Fold change /veh GAP43 (11754022_s_at) / RFU A4GNT (11735810_at) / Fold change /veh A4GNT (11735810_at) / RFU PRB3 (11715151_x_at) / Fold change /veh PRB3 (11715151_x_at) / RFU TUBB4B (11761932_at) / Fold change /veh TUBB4B (11761932_at) / RFU CAPN14 (11732068_a_at) / Fold change /veh CAPN14 (11732068_a_at) / RFU TMCC2 (11721928_a_at) / Fold change /veh TMCC2 (11721928_a_at) / RFU IRGQ (11745062_a_at) / Fold change /veh IRGQ (11745062_a_at) / RFU FAM174B (11720279_a_at) / Fold change /veh FAM174B (11720279_a_at) / RFU TMPRSS4 (11748680_a_at) / Fold change /veh TMPRSS4 (11748680_a_at) / RFU FAM212B (11763350_a_at) / Fold change /veh FAM212B (11763350_a_at) / RFU PLEKHG5 (11743358_a_at) / Fold change /veh PLEKHG5 (11743358_a_at) / RFU ZSCAN30 (11745921_a_at) / Fold change /veh ZSCAN30 (11745921_a_at) / RFU CMKLR1 (11741424_a_at) / Fold change /veh CMKLR1 (11741424_a_at) / RFU LOC101060620 /// MAPK8IP1 (11723275_at) / Fold change /veh LOC101060620 /// MAPK8IP1 (11723275_at) / RFU SPTSSB (11747773_x_at) / Fold change /veh SPTSSB (11747773_x_at) / RFU PRSS12 (11739890_at) / Fold change /veh PRSS12 (11739890_at) / RFU BIN1 (11741810_x_at) / Fold change /veh BIN1 (11741810_x_at) / RFU WNT11 (11732464_a_at) / Fold change /veh WNT11 (11732464_a_at) / RFU C10orf10 (11716521_a_at) / Fold change /veh C10orf10 (11716521_a_at) / RFU C5orf56 (11738089_at) / Fold change /veh C5orf56 (11738089_at) / RFU CYB561 (11721691_x_at) / Fold change /veh CYB561 (11721691_x_at) / RFU ANKRD19P (11752326_a_at) / Fold change /veh ANKRD19P (11752326_a_at) / RFU OR2T12 /// OR2T33 /// OR2T8 (11738714_s_at) / Fold change /veh OR2T12 /// OR2T33 /// OR2T8 (11738714_s_at) / RFU VCAN (11748164_a_at) / Fold change /veh VCAN (11748164_a_at) / RFU JSRP1 (11732532_at) / Fold change /veh JSRP1 (11732532_at) / RFU KRTAP10-11 (11738290_x_at) / Fold change /veh KRTAP10-11 (11738290_x_at) / RFU MYO3A (11730013_a_at) / Fold change /veh MYO3A (11730013_a_at) / RFU EBF3 (11725865_a_at) / Fold change /veh EBF3 (11725865_a_at) / RFU CAMK2N1 (11719241_x_at) / Fold change /veh CAMK2N1 (11719241_x_at) / RFU C5orf56 (11738088_a_at) / Fold change /veh C5orf56 (11738088_a_at) / RFU OLFML3 (11715873_a_at) / Fold change /veh OLFML3 (11715873_a_at) / RFU LOC100653217 /// NTM (11731650_a_at) / Fold change /veh LOC100653217 /// NTM (11731650_a_at) / RFU MAPK11 (11762145_a_at) / Fold change /veh MAPK11 (11762145_a_at) / RFU FIZ1 (11724087_x_at) / Fold change /veh FIZ1 (11724087_x_at) / RFU OASL (11726364_x_at) / Fold change /veh OASL (11726364_x_at) / RFU SOX15 (11748057_x_at) / Fold change /veh SOX15 (11748057_x_at) / RFU CD79A (11719716_a_at) / Fold change /veh CD79A (11719716_a_at) / RFU HIST1H1D (11736915_at) / Fold change /veh HIST1H1D (11736915_at) / RFU CASKIN2 (11723855_a_at) / Fold change /veh CASKIN2 (11723855_a_at) / RFU LOC730098 (11760151_x_at) / Fold change /veh LOC730098 (11760151_x_at) / RFU OR4N2 (11742367_at) / Fold change /veh OR4N2 (11742367_at) / RFU PRRT2 (11749266_a_at) / Fold change /veh PRRT2 (11749266_a_at) / RFU SNX32 (11753110_a_at) / Fold change /veh SNX32 (11753110_a_at) / RFU CDHR5 (11726645_a_at) / Fold change /veh CDHR5 (11726645_a_at) / RFU RCAN1 (11760418_a_at) / Fold change /veh RCAN1 (11760418_a_at) / RFU FAM167A (11723789_a_at) / Fold change /veh FAM167A (11723789_a_at) / RFU FAM26E (11764081_at) / Fold change /veh FAM26E (11764081_at) / RFU ISYNA1 (11749810_s_at) / Fold change /veh ISYNA1 (11749810_s_at) / RFU ACY1 (11761880_at) / Fold change /veh ACY1 (11761880_at) / RFU 11764098_at / Fold change /veh 11764098_at / RFU SAMD14 (11745864_x_at) / Fold change /veh SAMD14 (11745864_x_at) / RFU NPB (11741838_a_at) / Fold change /veh NPB (11741838_a_at) / RFU TMPRSS6 (11731388_a_at) / Fold change /veh TMPRSS6 (11731388_a_at) / RFU KRTAP10-2 (11738614_at) / Fold change /veh KRTAP10-2 (11738614_at) / RFU ARHGAP8 /// PRR5-ARHGAP8 (11727945_x_at) / Fold change /veh ARHGAP8 /// PRR5-ARHGAP8 (11727945_x_at) / RFU KRTAP5-7 /// NADSYN1 (11734609_at) / Fold change /veh KRTAP5-7 /// NADSYN1 (11734609_at) / RFU RASL12 (11751679_a_at) / Fold change /veh RASL12 (11751679_a_at) / RFU CDKN2B (11736163_a_at) / Fold change /veh CDKN2B (11736163_a_at) / RFU PRF1 (11729649_at) / Fold change /veh PRF1 (11729649_at) / RFU, ZNF638 /// ZNF638-IT1 / Fold change vs veh, ZNF638 /// ZNF638-IT1 / RFU, PANK3 / Fold change vs veh, PANK3 / RFU, SH3YL1 / Fold change vs veh, SH3YL1 / RFU, ZEB2 / Fold change vs veh, ZEB2 / RFU, NRIP1 / Fold change vs veh, NRIP1 / RFU, PTTG1IP / Fold change vs veh, PTTG1IP / RFU, CAPN2 / Fold change vs veh, CAPN2 / RFU, MED14 / Fold change vs veh, MED14 / RFU, SNORA58 / Fold change vs veh, SNORA58 / RFU, C1orf63 / Fold change vs veh, C1orf63 / RFU, LRRFIP1 / Fold change vs veh, LRRFIP1 / RFU, NDUFAF7 / Fold change vs veh, NDUFAF7 / RFU, SLC12A2 / Fold change vs veh, SLC12A2 / RFU, IBTK / Fold change vs veh, IBTK / RFU, ESF1 / Fold change vs veh, ESF1 / Fold change vs veh, TMEM50B / RFU, TAOK1 / Fold change vs veh, TAOK1 / RFU, ACBD3 / Fold change vs veh, ACBD3 / RFU, TMA16 / Fold change vs veh, TMA16 / RFU, RWDD3 / Fold change vs veh, RWDD3 / RFU, BCAT1 / Fold change vs veh, BCAT1 / RFU, EDEM3 / Fold change vs veh, EDEM3 / RFU, TMEM33 / Fold change vs veh, TMEM33 / RFU, WDR75 / Fold change vs veh, WDR75 / RFU, AHCTF1 / Fold change vs veh, AHCTF1 / RFU, TFRC / Fold change vs veh, TFRC / RFU, ZDHHC17 / Fold change vs veh, ZDHHC17 / RFU, NOM1 / Fold change vs veh, NOM1 / RFU, ARL8B / Fold change vs veh, ARL8B / RFU, ZBTB11 / Fold change vs veh, ZBTB11 / RFU, TAMM41 / Fold change vs veh, TAMM41 / RFU, KIAA1704 /// LOC100996395 / Fold change vs veh, KIAA1704 /// LOC100996395 / RFU, ING1 / Fold change vs veh, ING1 / RFU, TRMT61B / Fold change vs veh, TRMT61B / RFU, FUBP3 / Fold change vs veh, FUBP3 / RFU, TP53 / Fold change vs veh, TP53 / RFU, TNKS2 / Fold change vs veh, TNKS2 / RFU, ZFP14 / Fold change vs veh, ZFP14 / RFU, ACTR2 / Fold change vs veh, ACTR2 / RFU, PPP3R1 / Fold change vs veh, PPP3R1 / RFU, PIK3R1 / Fold change vs veh, PIK3R1 / RFU, HNRNPA1 / Fold change vs veh, HNRNPA1 / RFU, RNF170 / Fold change vs veh, RNF170 / RFU, ZNF28 / Fold change vs veh, ZNF28 / RFU, RNGTT / Fold change vs veh, RNGTT / RFU, OGT / Fold change vs veh, OGT / RFU, BRD1 / Fold change vs veh, BRD1 / RFU, MARS / Fold change vs veh, MARS / RFU, ZNF655 / Fold change vs veh, ZNF655 / RFU, FAHD1 / Fold change vs veh, FAHD1 / RFU, BDP1 / Fold change vs veh, BDP1 / RFU, LRRCC1 / Fold change vs veh, LRRCC1 / RFU, ARID1A / Fold change vs veh, ARID1A / RFU, ZNF146 / Fold change vs veh, ZNF146 / RFU, ZNF330 / Fold change vs veh, ZNF330 / RFU, GPN3 / Fold change vs veh, GPN3 / RFU, C9orf123 / Fold change vs veh, C9orf123 / RFU, N4BP2L2 / Fold change vs veh, N4BP2L2 / RFU, ARFIP1 / Fold change vs veh, ARFIP1 / RFU, FAM179B / Fold change vs veh, FAM179B / RFU, BCL10 / Fold change vs veh, BCL10 / RFU, UHRF1BP1L / Fold change vs veh, UHRF1BP1L / RFU, BET1 / Fold change vs veh, BET1 / RFU, CNOT2 / Fold change vs veh, CNOT2 / RFU, ZNF268 / Fold change vs veh, ZNF268 / Fold change vs veh, ZNF507 / RFU, DGCR2 / Fold change vs veh, DGCR2 / RFU, WDSUB1 / Fold change vs veh, WDSUB1 / Fold change vs veh, HSP90B1 /// MIR3652 / RFU, ADSS / Fold change vs veh, ADSS / RFU, GK / Fold change vs veh, GK / RFU, ZNF148 / Fold change vs veh, ZNF148 / RFU, TAF9 / Fold change vs veh, TAF9 / RFU, SLC1A5 / Fold change vs veh, SLC1A5 / RFU, SLMO2 / Fold change vs veh, SLMO2 / RFU, ABCC4 / Fold change vs veh, ABCC4 / RFU, LOC101060439 /// RAP1B / Fold change vs veh, LOC101060439 /// RAP1B / RFU, RFX7 / Fold change vs veh, RFX7 / RFU, GTPBP10 / Fold change vs veh, GTPBP10 / RFU, CNEP1R1 / Fold change vs veh, CNEP1R1 / RFU, BIVM-ERCC5 /// ERCC5 / Fold change vs veh, BIVM-ERCC5 /// ERCC5 / RFU, ILF3 / Fold change vs veh, ILF3 / RFU 11762660_at / Fold change /veh 11762660_at / RFU VCAN (11757783_s_at) / Fold change /veh VCAN (11757783_s_at) / RFU DDX43 (11728927_at) / Fold change /veh DDX43 (11728927_at) / RFU KRT8 (11758188_x_at) / Fold change /veh KRT8 (11758188_x_at) / RFU NKD1 (11759106_at) / Fold change /veh NKD1 (11759106_at) / RFU SRD5A1 (11742802_a_at) / Fold change /veh SRD5A1 (11742802_a_at) / RFU TPSAB1 /// TPSB2 (11721975_s_at) / Fold change /veh TPSAB1 /// TPSB2 (11721975_s_at) / RFU GSTM3 (11746129_a_at) / Fold change /veh GSTM3 (11746129_a_at) / RFU IL23R (11737362_x_at) / Fold change /veh IL23R (11737362_x_at) / RFU TMEM51 (11727254_a_at) / Fold change /veh TMEM51 (11727254_a_at) / RFU PIWIL2 (11732686_x_at) / Fold change /veh PIWIL2 (11732686_x_at) / RFU ORM1 (11744905_x_at) / Fold change /veh ORM1 (11744905_x_at) / RFU CCDC152 (11743942_at) / Fold change /veh CCDC152 (11743942_at) / RFU ECM1 (11717891_a_at) / Fold change /veh ECM1 (11717891_a_at) / RFU IL23R (11748794_a_at) / Fold change /veh IL23R (11748794_a_at) / RFU TNFAIP8L3 (11732012_x_at) / Fold change /veh TNFAIP8L3 (11732012_x_at) / RFU MBOAT4 (11741988_at) / Fold change /veh MBOAT4 (11741988_at) / RFU 11764193_at / Fold change /veh 11764193_at / RFU TMEM53 (11763286_at) / Fold change /veh TMEM53 (11763286_at) / RFU MAGEB2 (11727129_at) / Fold change /veh MAGEB2 (11727129_at) / RFU TMEM200A (11744735_a_at) / Fold change /veh TMEM200A (11744735_a_at) / RFU CCDC152 (11751479_a_at) / Fold change /veh CCDC152 (11751479_a_at) / RFU FAM211A (11726209_a_at) / Fold change /veh FAM211A (11726209_a_at) / RFU RGS16 (11746705_a_at) / Fold change /veh RGS16 (11746705_a_at) / RFU VCAN (11755009_s_at) / Fold change /veh VCAN (11755009_s_at) / RFU RHOB (11743442_s_at) / Fold change /veh RHOB (11743442_s_at) / RFU RGS16 (11720943_a_at) / Fold change /veh RGS16 (11720943_a_at) / RFU RGS16 (11720944_at) / Fold change /veh RGS16 (11720944_at) / RFU, VPS4B / Fold change vs veh, VPS4B / RFU, CREB1 / Fold change vs veh, CREB1 / RFU, DNAJC13 / Fold change vs veh, DNAJC13 / RFU, GNAQ / Fold change vs veh, GNAQ / RFU, CDK5R1 / Fold change vs veh, CDK5R1 / RFU, ZRANB3 / Fold change vs veh, ZRANB3 / RFU, CUL4A / Fold change vs veh, CUL4A / RFU, CCNY / Fold change vs veh, CCNY / RFU, UFL1 / Fold change vs veh, UFL1 / RFU, COG3 / Fold change vs veh, COG3 / RFU, DIAPH2 / Fold change vs veh, DIAPH2 / RFU, SKA2 / Fold change vs veh, SKA2 / RFU, AFF3 / Fold change vs veh, AFF3 / RFU, LMF1 / Fold change vs veh, LMF1 / RFU, IPO11 / Fold change vs veh, IPO11 / RFU, DFFB / Fold change vs veh, DFFB / RFU, FOXP1 / Fold change vs veh, FOXP1 / RFU, CARD8 / Fold change vs veh, CARD8 / RFU, STRN3 / Fold change vs veh, STRN3 / RFU, ADK / Fold change vs veh, ADK / RFU, RASSF2 / Fold change vs veh, RASSF2 / RFU, WIPF1 / Fold change vs veh, WIPF1 / RFU, LARP1B / Fold change vs veh, LARP1B / RFU, RASA1 / Fold change vs veh, RASA1 / RFU, RB1 / Fold change vs veh, RB1 / RFU, PPFIA1 / Fold change vs veh, PPFIA1 / RFU, MAT2A / Fold change vs veh, MAT2A / RFU, CCT5 / Fold change vs veh, CCT5 / RFU, WDR92 / Fold change vs veh, WDR92 / RFU, CUX1 / Fold change vs veh, CUX1 / RFU, TTC7A / Fold change vs veh, TTC7A / RFU, TMEM135 / Fold change vs veh, TMEM135 / RFU, DEPTOR / Fold change vs veh, DEPTOR / RFU, CPM / Fold change vs veh, CPM / RFU, DNAJB6 / Fold change vs veh, DNAJB6 / RFU, CACNA2D3 / Fold change vs veh, CACNA2D3 / RFU, DTX4 / Fold change vs veh, DTX4 / RFU, TFCP2 / Fold change vs veh, TFCP2 / RFU, GMCL1 /// GMCL1P1 / Fold change vs veh, GMCL1 /// GMCL1P1 / RFU, AEBP2 / Fold change vs veh, AEBP2 / RFU, SNHG1 /// SNORD22 /// SNORD25 /// SNORD26 /// SNORD27 /// SNORD28 /// SNORD29 /// SNORD31 / Fold change vs veh, SNHG1 /// SNORD22 /// SNORD25 /// SNORD26 /// SNORD27 /// SNORD28 /// SNORD29 /// SNORD31 / Fold change (Aza/veh), C12orf56 (ProbeSet 11735607_a_at) / Fold change (ACY-1035/veh), C12orf56 (ProbeSet 11735607_a_at) / Fold change (Aza/veh), FGFR1OP (ProbeSet 11751329_s_at) / Fold change (ACY-1035/veh), FGFR1OP (ProbeSet 11751329_s_at) / Fold change (Aza/veh), VPS36 (ProbeSet 11739960_a_at) / Fold change (ACY-1035/veh), VPS36 (ProbeSet 11739960_a_at) / RFU SYPL1 (11715823_x_at) / Fold change /veh SYPL1 (11715823_x_at) / RFU IGFBP7 (11715501_s_at) / Fold change /veh IGFBP7 (11715501_s_at) / RFU REEP3 (11722064_at) / Fold change /veh REEP3 (11722064_at) / RFU IGLL1 (11728026_x_at) / Fold change /veh IGLL1 (11728026_x_at): dose or concentration left out as unconfirmed
Settings: MV-4-11 cells, 48 hours

Nc1ncn([C@@H]2O[C@H](CO)[C@@H](O)[C@H]2O)c(=O)n1 [azacitidine]
Fold change /veh PLEKHG5 (11737974_s_at): 1.17
